Residue numbers refer to the chain shown, from its start. Several values for one entry are separate records, joined by “and”; a condition that tells them apart may be missing. Identical values can stand only once.
What was measured:
xlσ1R-C179/C203 = target: T1, xlσ1R-C179/C203 (Xenopus laevis, UniProt Q6DCU6, L179C/Y203C); assay: ITC binding of PRE084 to xlσ1R-C179/C203 (disulfide oxidation / re-reduction); conditions: ITC; for number of available binding sites per protomer (stoichiometry): mean ± SD
T1 construct: The gene encoding the full-length wild-type σ1R from Xenopus laevis; hemagglutinin signal peptide (N); decahistidine (His10) (N); TEV protease recognition site (N); made in house; host or cells: Pichia pastoris GS115
T1 sequence (Q6DCU6 1-221 L179C/Y203C): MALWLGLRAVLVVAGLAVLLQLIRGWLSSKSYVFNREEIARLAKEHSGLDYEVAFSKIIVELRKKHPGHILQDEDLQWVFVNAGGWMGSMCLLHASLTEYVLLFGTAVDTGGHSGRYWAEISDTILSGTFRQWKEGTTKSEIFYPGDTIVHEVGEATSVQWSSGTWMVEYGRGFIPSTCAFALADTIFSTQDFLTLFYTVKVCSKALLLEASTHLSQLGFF

xlσ1R-C179 = target: T2, xlσ1R-C179 (Xenopus laevis, UniProt Q6DCU6, L179C); assay: ITC binding of PRE084 to xlσ1R-C179 before/after mPEG-Mal-5K modification; conditions: for C179 stoichiometry, Before modification / number of available binding sites per protomer (stoichiometry) / C179 stoichiometry, After modification: ITC; for number of available binding sites per protomer (stoichiometry): mean ± SD; for C179 stoichiometry, After modification: mPEG-Mal-5K
T2 construct: The gene encoding the full-length wild-type σ1R from Xenopus laevis; hemagglutinin signal peptide (N); decahistidine (His10) (N); TEV protease recognition site (N); made in house; host or cells: Pichia pastoris GS115
T2 sequence (Q6DCU6 1-221 L179C): T1 sequence (Q6DCU6 1-221 L179C/Y203C) with C203Y

xlσ1R-C203 = target: T3, xlσ1R-C203 (Xenopus laevis, UniProt Q6DCU6, Y203C); assay: ITC binding of PRE084 to xlσ1R-C203 before/after mPEG-Mal-5K modification; conditions: for number of available binding sites per protomer (stoichiometry): mean ± SD; for C203 stoichiometry, After modification: mPEG-Mal-5K
T3 construct: The gene encoding the full-length wild-type σ1R from Xenopus laevis; hemagglutinin signal peptide (N); decahistidine (His10) (N); TEV protease recognition site (N); made in house; host or cells: Pichia pastoris GS115
T3 sequence (Q6DCU6 1-221 Y203C): T1 sequence (Q6DCU6 1-221 L179C/Y203C) with C179L

[1] = Mean of repeats (source data Fig. 4b)
[2] = individual repeats (source data Fig. 4b)
[3] = Mean of repeats (source data Fig. 4e)
[4] = individual repeats (source data Fig. 4e)
[5] = ITC, individual repeats (source data Fig. 4e)

Compound: O=C(OCCN1CCOCC1)C1(c2ccccc2)CCCCC1 [PRE084, [2-(morpholin-4-yl)ethyl] 1-phenylcyclohexane-1-carboxylate]
- increase of Kd after oxidation compared to before oxidation (xlσ1R-C179/C203): ~ 9 fold
- C179/C203 stoichiometry, After oxidation (xlσ1R-C179/C203; [1]): 0.1833
- C179/C203 stoichiometry, Before oxidation (xlσ1R-C179/C203; [1]): 0.9178
- C179/C203 stoichiometry, Re-reduction (xlσ1R-C179/C203; [1]): 0.5202
- number of available binding sites per protomer (stoichiometry) (xlσ1R-C179/C203; after oxidation (disulfide formed)): 0.18 ± 0.02
- number of available binding sites per protomer (stoichiometry) (xlσ1R-C179/C203; before oxidation): 0.92 ± 0.01
- C179/C203 stoichiometry, After oxidation (xlσ1R-C179/C203; [2]): 0.179 and 0.210 and 0.161
- C179/C203 stoichiometry, Before oxidation (xlσ1R-C179/C203; [2]): 0.933 and 0.929 and 0.922 and 0.901 and 0.904
- C179/C203 stoichiometry, Re-reduction (xlσ1R-C179/C203; [2]): 0.502 and 0.537 and 0.513 and 0.529
- number of available binding sites per protomer (stoichiometry) (xlσ1R-C179/C203; oxidized sample re-reduced with β-mercaptoethanol): 0.52 ± 0.02
- C179 stoichiometry, Before modification (xlσ1R-C179; [3]): 0.8482
- number of available binding sites per protomer (stoichiometry) (xlσ1R-C179; after mPEG-Mal-5K modification): 0.48 ± 0.07
- number of available binding sites per protomer (stoichiometry) (xlσ1R-C179; before mPEG-Mal-5K modification): 0.85 ± 0.09
- C179 stoichiometry, Before modification (xlσ1R-C179; [4]): 0.787 and 0.943 and 0.756 and 0.907
- C179 stoichiometry, After modification (xlσ1R-C179; [3]): 0.4808
- C179 stoichiometry, After modification (xlσ1R-C179; [4]): 0.399 and 0.462 and 0.576 and 0.486
- blockade percentage (reduction of available binding sites) (xlσ1R-C179; after mPEG-Mal-5K modification): ~ 44%
- number of available binding sites per protomer (stoichiometry) (xlσ1R-C203; ITC, after mPEG-Mal-5K modification): 0.69 ± 0.04
- number of available binding sites per protomer (stoichiometry) (xlσ1R-C203; ITC, before mPEG-Mal-5K modification): 0.87 ± 0.01
- C203 stoichiometry, Before modification (xlσ1R-C203; [5]): 0.883 and 0.859 and 0.873
- C203 stoichiometry, After modification (xlσ1R-C203; ITC, Mean of repeats (source data Fig. 4e)): 0.6895
- C203 stoichiometry, After modification (xlσ1R-C203; [5]): 0.635 and 0.734 and 0.712 and 0.677
- blockade percentage (reduction of available binding sites) (xlσ1R-C203; after mPEG-Mal-5K modification): ~ 21%
